Assay results: patent US8962691B2, “Retinoid replacements and opsin agonists and methods for the use thereof” (University of Washington, priority 2003, dated 2015)

Experiments:
Rpe65−/− mice [1] = assay: Analyses of retinoids and visual pigments in eyes of Rpe65−/− mice given 9-cis-retinal; type: in vivo, mouse
Description: All of the procedures were performed under dim red light as described previously (Van Hooser et al., Proc. Natl. Acad. Sci. USA 97:8623-28 (2000); Jang et al., J. Biol. Chem. 276:32456-65 (2001); Palczewski et al., Biochemistry 38:12012-19 (1999)). In addition to previously described methods, retinoid analysis was performed on an HP 1100 series high pressure liquid chromatograph (HPLC) equipped with a diode array detector and HP Chemstation A.07.01 software, allowing identification of retinoid isomers according to their specific retention time and absorption maxima. A normal phase column (Beckman Ultrasphere Si 5μ, 4.6×250 mm) and an isocratic solvent system of 0.5% ethyl acetate in hexane (v/v) for 15 minutes followed by 4% ethyl acetate in hexane for 60 minutes at a flow rate of 1.4 ml/minute at 20° C. (total 75 min) with detection at 325 nm allowed the separation of 11-cis-, 13-cis-, and all-trans-retinyl esters. In addition, all of the study procedures related to the analysis of dissected mouse eyes, derivatization, and separation of retinoids have been described previously in detail (Van Hooser et al., Proc. Natl. Acad. Sci. USA 97:8623-28 (2000)). Rhodopsin and iso-rhodopsin measurements were performed as described previously (Palczewski et al., Biochemistry 38:12012-19 (1999)). Typically, two mouse eyes were used per assay, and the assays were repeated three to six times. The data are presented with S.E.M.
(§1) Oral gavage was carried out as described previously (Van Hooser et al., Proc. Natl. Acad. Sci. USA 97:8623-28 (2000)).
(§2) The chemicals were purchased from Sigma/Aldrich unless otherwise specified. Solution A contained 10 mg of 9-cis-retinal, 75 mg of Cremophor EL, 1 mg of α-tocopherol, and 0.6 mg of benzoic acid suspended in 1 ml of lactated Ringer's solution (Baxter). The mixture was vortexed for 10 minutes and centrifuged for 10 minutes at 20,000×g, and the concentration of 9-cis-retinal (7.7 mM) was determined spectrophotometrically. Solution B contained 13 mg of 9-cis-retinal, 50 mg of Cremophor EL, 10 mg of dipalmitoylphosphatidyl choline, and 40 mg of 2-hydroxypropyl-β-cyclodextrin suspended in 1 ml of lactated Ringer's solution (Baxter). The mixture was vortexed for 10 minutes and centrifuged for 10 minutes at 20,000×g, and the concentration of 9-cis-retinal (10 mM) was determined spectrophotometrically. Solutions A and B (typically, 100 μl) were delivered to the mouse lateral tail vein employing a 1-ml syringe equipped with a 27-gauge needle and a restraint tube.

Rpe65−/− mice [2] = assay: Light and electron microscopy of RPE-ROS interface; type: in vivo, mouse
Description: Eye cups were prepared by removing the anterior segment and vitreous. […] “Thin” sections (1.0 μm) were stained with Richardson's blue solution (1%) and subjected to light microscopy. “Ultrathin” sections (0.05 μm) were stained with uranyl acetate/lead citrate and subjected to electron microscopy.

Rpe65−/− mice [3] = assay: Mouse flicker electroretinograms; type: in vivo
Description: Mice were dark-reared from birth and anesthetized (ketaject/xylaject, 65 mg/kg intraperitoneally), and the pupils were dilated with tropicamide (1%). […] The mice were placed in a Ganzfield chamber, and flicker recordings were obtained from one eye.

rods from Rpe65−/− mice = assay: Single cell recordings of isolated rods; type: in vivo, mouse
Description: Mice were dark-reared from birth and sacrificed via cervical dislocation, and the eyes were removed. The retina was isolated and stored on ice for up to 12 hours in HEPES-buffered Ames' solution (10 mM HEPES, pH adjusted to 7.4 with NaOH). Isolated rods were obtained by shredding a small piece of retina (roughly 1 mm^2) with fine needles in a 160-μl drop of solution. The drop was then injected into a recording chamber mounted on the stage of an inverted microscope (Nikon Eclipse) equipped with an infrared video viewing system and continuously superfused at 2-3 ml/minute with bicarbonate-buffered Ames' solution warmed to 37° C. (pH 7.4 when equilibrated with 5% CO2, 95% O2). The entire dissection was carried out under infrared illumination using a dissecting microscope equipped with infrared-visible image converters.
An isolated rod was drawn by suction into a heat-polished, silanized borosilicate electrode with an opening 1.2-1.5 μm in diameter. The electrode was filled with HEPES-buffered Ames' solution. The electrical connections to the bath and suction electrode were made by NaCl-filled agar bridges that contacted calomel half-cells. Bath voltage was held at ground by an active clamp circuit (Baylor et al. J. Physiol. 354:203-23 (1984)). Membrane current collected by the suction electrode was amplified by an Axopatch 200A patch clamp amplifier (Axon Instruments, Foster City, Calif.), filtered at 30 Hz (3 dB point) with an 8-pole Bessel low pass filter, and digitized at 1 kHz.
Light from light-emitting diodes with peak outputs at 470, 570, and 640 nm were combined using a trifurcated fiber optic and focused on the preparation using a water immersion lens in place of the microscope condensor. The light stimulus was spatially uniform and illuminated a circular area 0.57 mm in diameter centered on the recorded cell. Light intensities were measured at the preparation and converted to equivalent 500-nm photons (max for rod sensitivity) using the absorption spectrum of rhodopsin and the measured light-emitting diode spectrum.

[4] = Retinal in blood circulation after intravenous injection or gavage; type: in vivo, mouse; conditions: for t1/2 in the circulation: intravenous injection
Description: as §1, §2

Rpe65−/− mice [5] = conditions: mouse, in vivo
Description: Mice were anesthetized by intraperitoneal injection with 15 μl/g body weight of 6 mg/ml ketamine and 0.44 mg/ml xylazine diluted with 10 mM phosphate buffer, pH 7.2, containing 100 mM NaCl. The pupils were dilated with 1% tropicamide. A contact lens electrode was placed on the eye with a drop of methylcellulose, and a ground electrode (a reference electrode) was placed in the ear. ERGs were recorded with the universal testing and electrophysiologic system 3000 (UTAS E-3000) (LKC Technologies, Inc.). The mice were placed in a Ganzfield chamber, and responses to flash stimuli were obtained from both eyes simultaneously. […] Two to four recordings were made with >10-second intervals. Typically, 4-8 animals were used for recording of each point in all conditions. All ERG measurements were done within 10-40 minutes after anesthesia.

For `CC1=C(/C=C/C(C)=C\C=C\C(C)=C\C=O)C(C)(C)CCC1` [9-cis-retinal], the “axial density of iso-rhodopsin as share of rhodopsin in Rpe65+/+ rods” value (Rpe65−/− mice [1]; 0.25 mg) was 16%, the “free opsin as share of total available pigment” value (Rpe65−/− mice [1]; 0.25 mg) was 72% and the “axial density of iso-rhodopsin as share of rhodopsin in Rpe65+/+ rods” value (Rpe65−/− mice [1]; 1.25 mg) was 21%. The “free opsin as share of total available pigment” value (Rpe65−/− mice [1]; 1.25 mg) was 63%, the amount of iso-rhodopsin (Rpe65−/− mice [1]; 2.5 mg) was 300 pmol and the “free opsin in rods” value (Rpe65−/− mice [1]; 2.5 mg) was “no free opsin”. The “iso-rhodopsin as share of rhodopsin in Rpe65+/+ rods” value (Rpe65−/− mice [1]; 2.5 mg) was “about 57%”, the “number of iso-rhodopsin molecules in rods” value (Rpe65−/− mice [1]; 2.5 mg) was “about 1.2×10^7” and the iso-rhodopsin formed (Rpe65−/− mice [1]; 2.5 mg dose gavage) was 300±25 pmol of iso-rhodopsin/eye. The “iso-rhodopsin and 9-cis-retinyl esters after flashes” value (Rpe65−/− mice [1]; 2.5 mg, after 48 hour more than three intense flashes at 1-hour intervals) was “significantly depleted”, the “retinyl esters from liver and RPE after flashes” value (Rpe65−/− mice [1]; 2.5 mg, five flashes at 24-hour intervals) was “completely depleted” and the all-trans-retinyl ester accumulation (Rpe65−/− mice [1]; 0.25-mg dose every other day from PND 7 until 30 days old) was “dramatic change in the ester accumulation”. The iso-rhodopsin formed (Rpe65−/− mice [1]; 0.25-mg dose gavage) was 85.6±6.2 pmol/eye, the iso-rhodopsin formed (Rpe65−/− mice [1]; 1.25-mg dose gavage) was 109.8 pmol of iso-rhodopsin/eye and the “decrease of iso-rhodopsin with age” value (Rpe65−/− mice [1]; 6-month-old (FIG. 2B) compared with FIG. 2A) was 50%. The “reduction of ester levels compared with untreated animals” value (Rpe65−/− mice [1]; 6 month-old Rpe65−/− mice treated twice, 2.5 mg/dose) was greater than 50%, the “iso-rhodopsin levels between dosing regimens” value (Rpe65−/− mice [1]; 6 month-old mice, 2.5 mg/dose twice at PND 30 and 34, 30 and 120, or 30 and 150) was “comparable” and the “pigment deficit of Rpe65−/− rods relative to Rpe65+/+” value (Rpe65−/− mice [1]; 48 hours after treatment) was “approximately 40%”. For the same compound, the “time rod photopigment is produced and maintained” value (Rpe65−/− mice [1]; Rpe65−/− mice in the dark) was “more than 6 months”, the “overall amounts of all-trans-retinyl esters” value (Rpe65−/− mice [1]; continued administration of 1 dose (1.25 mg) per week after early treatment) was “dramatically suppressed” and the “accumulation of 9-cis-retinyl esters in the liver or RPE” value (Rpe65−/− mice [1]; intravenous injection, addition of cyclodextrin) was “higher accumulation”. For the same compound, the iso-rhodopsin production (Rpe65−/− mice [1]; intravenous injection, with and without cyclodextrins) was “produced iso-rhodopsin”, the “depletion of retinal (iso-rhodopsin level)” value (Rpe65−/− mice [1]; single 2.5 mg dose at 1 month, 12-hour light/dark cycle or 24 hour dark for 37 days) was “No appreciable depletion of retinal” and the “removal of accumulated esters in the RPE” value (Rpe65−/− mice [1]; treatment began after more than 1 month of age) was “not removed”. For the same compound, the “filling of RPE vacuoles (lipid-like droplets)” value (Rpe65−/− mice [2]; early treated mice, over several months) was “only partially filled”, the “interface contacts between the RPE and ROS” value (Rpe65−/− mice [2]; young animals or young adults treated) was “improved” and the “time rod retinal function is supported post-treatment” value (Rpe65−/− mice [3]; early intervention, Rpe65−/− mice) was “more than 6 months”. The “gain in ERG sensitivity over untreated mice” value (Rpe65−/− mice [3]; eight weeks after single 2.5 mg) was 2.1 logarithmic units, the “flicker ERG peak amplitude” value (Rpe65−/− mice [3]; eight weeks after single 2.5 mg, at 0.059 cd·s/m^2) was 137.3±24.4 μV and the “flicker ERG peak amplitude” value (Rpe65−/− mice [3]; eight weeks after single 2.5 mg, at 13 cd·s/m^2) was 40.0±7.1 μV. For the same compound, the “persistence of partial recovery of ERG sensitivity” value (Rpe65−/− mice [3]; treated once at PND 30) was “more than 12 weeks”, the “factor of increase of half-saturating flash intensity over Rpe65+/+ rods” value (from here on “factor of increase … over Rpe65+/+ rods”) (rods from Rpe65−/− mice; 0.25 mg) was 131 and the “further desensitization of rods” value (rods from Rpe65−/− mice; 0.25 mg) was 6.8 fold. For the same compound, the “light-sensitive dark current of rods” value (rods from Rpe65−/− mice; 0.25 mg) was 3.6±0.9 pA, the “factor of increase … over Rpe65+/+ rods” value (rods from Rpe65−/− mice; 1.25 mg) was 66 and the “further desensitization of rods” value (rods from Rpe65−/− mice; 1.25 mg) was 4.5 fold. For the same compound, the “dim flash response kinetics vs Rpe65+/+” value (rods from Rpe65−/− mice; 2.5 mg) was “essentially the same kinetics”, the “factor of increase … over Rpe65+/+ rods” value (rods from Rpe65−/− mice; 2.5 mg) was 6 and the “increase in half-saturating flash strength compared with rods of Rpe65+/+” value (rods from Rpe65−/− mice; 2.5 mg) was 6 fold. The rod dark current (rods from Rpe65−/− mice; 2.5 mg) was “essentially the same as Rpe65+/+”, the “dim flash response time-to-peak and recovery times” value (rods from Rpe65−/− mice; 1.25 or 0.25 mg) was “substantially faster than those of Rpe65+/+” and the “half-saturating flash intensity I0” value (rods from Rpe65−/− mice; Rpe65−/− mice treated with 0.25 mg of 9-cis-retinal) was 3929 equivalent 500 nm photons/μm^2. For the same compound, the “half-saturating flash intensity I0” value (rods from Rpe65−/− mice; Rpe65−/− mice treated with 1.25 mg of 9-cis-retinal) was 1995 equivalent 500 nm photons/μm^2, the “half-saturating flash intensity I0” value (rods from Rpe65−/− mice; Rpe65−/− mice treated with 2.5 mg of 9-cis-retinal) was 164 equivalent 500 nm photons/μm^2 and the “presence of retinal in the bloodstream” value ([4]; gavage) was “greater than 48 hours”. For the same compound, the “t1/2 in the circulation” value ([4]; in the presence of cyclodextrins) was 23 h, the “t1/2 in the circulation” value ([4]; without cyclodextrins) was 12 h and the “ERG activity (a- and b-wave) compared with Me2SO” value (Rpe65−/− mice [5]) was “significantly increased sensitivity”.
